We go through six compounds from patent US10945427B2, “Trehalose and dextran-containing solution for transplanting mammalian cells” (OTSUKA PHARMACEUTICAL FACTORY, INC., priority 2013, dated 2021).

The subject of the experiment is Human mesenchymal stem cells from bone marrow [hMSC-BM]. The experiment can be described thus: Cell survival rate of hMSC-BM preserved in solution for cell transplantation (Trypan blue). Format: cell-based. Particulars: hMSC-BM preserved for 14 days; saccharide-containing Lactec injection without trehalose or dextran. As to the method:
Human mesenchymal stem cells from bone marrow [hMSC-BM] (from Lonza Co., Ltd.) were prepared according the procedures described in [1] to [8] below and used in the present experiment.
[1] hMSC-BM were cultured in a 5% CO2 incubator at 37° C. in the presence of a medium kit specific for human mesenchymal stem cells (from Lonza Co., Ltd.) (hereinafter referred to as “MSC medium”) using a 75-cm^2 flask. The state of the cells was observed under a microscope, and culture was performed until a confluent state of about 80% was reached.
[2] The […] was removed using an aspirator, and hMSC-BM were rinsed with 8 mL/flask of PBS (from Invitrogen Co., Ltd.).
[4] Swing was carried out in a slow manner while hMSC-BM were observed under a microscope until about 90% thereof were detached.
Centrifugation was carried out at 600×g and 25° C. for 5 minutes.
[7] The MSC medium as the supernatant was removed using an aspirator, and 4 mL/flask of PBS (from Invitrogen Co., Ltd.) was added, followed by suspending an hMSC-BM pellet (precipitate).
[8] 10 μL of the hMSC-BM suspension was taken; the number of the cells was measured using a cell counter; and PBS (from Invitrogen Co., Ltd.) was added thereto to 5×10^5 cells/mL, which was then cooled with ice.
[1] The hMSC-BM suspension prepared in the step [7] of the “1-1-3 Preparation of Mammalian Cell” described above was dispensed into a 15-mL conical centrifuge tube using […] (100 to 1,000 μL) and centrifuged at 600×g and 25° C. for 5 minutes.
[2] The supernatant after centrifugation treatment was aspirated/removed, and the resultant was suspended in each of the 11 solutions for cell transplantation and then preserved in a refrigerator (under conditions of 4° C.) for […]. To measure the cell survival rate before preservation, the supernatant after centrifugation treatment was aspirated/removed, and the resultant was then suspended in PBS (from Invitrogen Co., Ltd.), immediately followed by taking a portion (20 μL) of the suspension, mixing the portion with 20 μL of Trypan blue stain solution (from Gibco Co., Ltd.), and then measuring the total number of the cells and the number of dead cells using a cell counter under a microscope to evaluate the rate of living cells (see “P” in FIG. 1).
[3] After preserving hMSC-BM in the solution for cell transplantation for 14 days, stirring (5 times pipetting at a liquid volume of 500 μL) was gently performed in a state in which the end of a tip was inserted to a position visually at on the order of 5 mm from the bottom to make cells in a suspended state, and a portion (20 μL) of the suspension was taken into a 1.5-mL microtube, mixed with 20 μL of Trypan blue stain solution (from Gibco Co., Ltd.), and then measured for the total number of the cells and the number of dead cells using a cell counter under a microscope to evaluate the rate of living cells.
As for `OC[C@H]1O[C@@](CO)(O[C@H]2O[C@H](CO)[C@@H](O)[C@H](O)[C@H]2O)[C@@H](O)[C@@H]1O` [sucrose], the “effect of saccharide used alone on cell death, FIG. 7” value (“effect of saccharide used alone” below) is listed as “had not the effect of suppressing cell death”.
Under `OC[C@@H](O)[C@@H](O)[C@H](O)[C@H](O)CO` [mannitol] stands “had not the effect of suppressing cell death”; under `OC[C@H]1O[C@@H](O[C@H]2[C@H](O)[C@@H](O)C(O)O[C@@H]2CO)[C@H](O)[C@@H](O)[C@H]1O` (stereo partly drawn) [lactose], “had not the effect of suppressing cell death”; under `OC[C@H]1O[C@H](OC[C@H]2O[C@H](O[C@]3(CO)O[C@H](CO)[C@@H](O)[C@@H]3O)[C@H](O)[C@@H](O)[C@@H]2O)[C@H](O)[C@@H](O)[C@H]1O` [raffinose], “had not the effect of suppressing cell death”.
On to `OC[C@H]1O[C@H](O[C@H]2[C@H](O)[C@@H](O)[C@H](O)O[C@@H]2CO)[C@H](O)[C@@H](O)[C@@H]1O` [maltose], for which the “effect of saccharide used alone” value was “had not the effect of suppressing cell death”.
In the case of `OC[C@@H](O)[C@@H](O)[C@H](O)[C@@H](O)CO` [sorbitol], the “effect of saccharide used alone” value is “had not the effect of suppressing cell death”.
